Drawing on US8980569B2, “Chronic lymphocytic leukemia prognosis and treatment” (Duke University, priority 2007, dated 2015), this text covers percent cytotoxicity and EC50 for one compound.

The data set relates to CLL cells. The following applies: freshly isolated CLL cells.

`COc1cc2c(cc1O)CC[C@@H]1[C@@H]2CC[C@]2(C)[C@@H](O)CC[C@@H]12` [2-ME, 2-methoxyestradiol] came in with a percent cytotoxicity (at 10 μM, 72 hours) of 71%. In addition, the EC50 (read-out: effective dose for 50% killing (ED50), incubated 72 hours) is 7.5 µM.
